Laboratory results from patent EP0968649A1, “Adjuvants for novel dry herbicide formulations” (E.I. DU PONT DE NEMOURS AND COMPANY, priority 1998, dated 2000).

Assays:
Assay type in all cases: in vivo
Viola arvensis (VIOAR) = test: Example 5: weed control, SCS5045 surfactant mixed with tribenuron methyl, visual percent growth reduction; settings: where named, 0.1%, 300 L/ha, 70 days after treatment
Description: (§1) Evaluation of SCS5045 surfactant was made by mixing the surfactant with tribenuron methyl herbicide and spraying the resulting solution at a rate of 5.625 to 45 g/ha tribenuron methyl in a spray volume of 300 L/ha on Viola arvensis (VIOAR) and Veronica agrestis (VERAG). Surfactants were applied at a concentration of 0.1% by weight (if the surfactant is dry) or by volume (if the surfactant is a liquid) of surfactant per volume of spray solution. Three replications were made of each treatment. Weed control was visually assessed 70 days after treatment by evaluating the percent growth reduction, using a 0 to 100% scale where 0% equals no control, and 100% equals death of the weed.

[1] = test system: Veronica agrestis (VERAG); test: as above; settings: where named, 0.1%, 300 L/ha, 70 days after treatment
Description: as §1

[2] = test system: common lambsquarters (Chenopodium album L.); test: Example 24: adjuvants tank mixed with thifensulfuron methyl, percent control from green fresh weights; settings: herbicide alone, no adjuvant; thifensulfuron methyl 2 g/ha; 187 L/ha; after two weeks
Experimental: (§2) The effect of adjuvants on the activity of thifensulfuron methyl was investigated by tank mixing the adjuvants with the herbicide. Evaluation of the adjuvants was made by mixing the adjuvant with an herbicide solution and spraying the resulting solution at a rate of 2 g/ha thifensulfuron methyl in a spray volume of 187 L/ha on common lambsquarters (Chenopodium album L.). Four replications were made of each treatment. Plants were evaluated after two weeks by measuring their green fresh weights and converting these weight by comparison to an untreated control treatment into percent control values.

[3] = test system: Alopecurus myosuroides (ALOMY); test: Example 8: field weed control, adjuvants mixed with flupyrsulfuron methyl, visual percent growth reduction and head count; settings: surfactant, where named, 0.1%; for % control ALOMY: 300 L/ha, 60 days after treatment; for Heads/m^2 ALOMY: at 85 days, untreated 784
Description: (§3) Evaluation of the adjuvants was made, in the field by mixing the adjuvant with flupyrsulfuron methyl herbicide and spraying the resulting solution at a rate of 2.5 to 20 g/ha flupyrsulfuron methyl in a spray volume of 300 L/ha on Alopecurus myosuroides (ALOMY). Surfactants were applied at a concentration of 0.1 % by weight of SC5045 or 0.1 % by volume of Trend® 90 per volume of spray solution. Three replications were made of each treatment. Weed control was visually assessed 60 days after treatment by evaluating the percent growth reduction, using a 0 to 100% scale where 0% equals no control, and 100% equals death of the weed and by counting the number of ALOMY heads per m^2, at 85 days.

[4] = test system: giant foxtail (Setaria faberi); test: Example 22: adjuvants tank mixed with quizalofop-ethyl, percent control from green fresh weights; settings: herbicide alone, no adjuvant; quizalofop-ethyl 3.5 g/ha; 187 L/ha; after two weeks
Experimental: as §2, with “quizalofop-ethyl” for “thifensulfuron methyl”, “3.5” for “2”, “giant foxtail (Setaria faberi).” for “common lambsquarters (Chenopodium album L.).”, “treatment. The experiment was repeated two times.” for “treatment.”

[5] = test system: giant foxtail (Setaria faberi); test: Example 20: adjuvants tank mixed with nicosulfuron, percent control from green fresh weights; settings: herbicide alone, no adjuvant; nicosulfuron 3.5 g/ha; 187 L/ha; after two weeks
Experimental: as §2, with “nicosulfuron” for “thifensulfuron methyl”, “a nicosulfuron” for “an herbicide”, “3.5” for “2”, “giant foxtail (Setaria faberi).” for “common lambsquarters (Chenopodium album L.).”, “treatment. The experiment was repeated three times.” for “treatment.”

[6] = test system: giant foxtail (Setaria faberi); test: Example 19: adjuvants tank mixed with nicosulfuron, percent control from green fresh weights; settings: Adjuvant Conc. 0 % w/w (no adjuvant); nicosulfuron 3.5 g/ha; 187 L/ha; after two weeks
Experimental: as §2, with “nicosulfuron” for “thifensulfuron methyl”, “a nicosulfuron” for “an herbicide”, “3.5” for “2”, “giant foxtail (Setaria faberi). Three” for “common lambsquarters (Chenopodium album L.). Four”

[7] = test system: Alopecurus myosuroides (ALOMY); test: Example 6: field weed control, SCS5045 surfactant mixed with sulfosulfuron, visual percent growth reduction and head count; settings: where named, 0.1%; for % control ALOMY: 300 L/ha, 60 days after treatment; for Heads/m^2 ALOMY: counted 85 days after treatment, untreated 400
Description: as §3, with “SCS5045 surfactant” for “the adjuvants”, “surfactant” for “adjuvant”, “sulfosulfuron” for “flupyrsulfuron methyl”, “11.25” for “2.5”, “45 g /ha sulfosulfuron” for “20 g/ha flupyrsulfuron methyl”, “weed.” for “weed and by counting the number of ALOMY heads per m^2, at 85 days.”
The number of ALOMY heads per m^2 was also counted 85 days after treatment.

[8] = test system: Veronica hederifolia (VERHE); test: Example 7: field weed control, SCS5045 surfactant mixed with metsulfuron methyl, visual percent growth reduction; settings: where named, 0.1%, 300 L/ha, 50 days after treatment
Description: as §1, with “was made, in the field” for “was made”, “with metsulfuron” for “with tribenuron”, “g/ha metsulfuron” for “g/ha tribenuron”, “on” for “on Viola arvensis (VIOAR) and”, “Veronica hederifolia (VERHE).” for “Veronica agrestis (VERAG).”, “assessed 50” for “assessed 70”

[9] = test system: giant foxtail (Setaria faberi); test: Example 21: adjuvants tank mixed with isopropylamine salt of glyphosate, percent control from green fresh weights; settings: herbicide alone, no added adjuvant; 210 g/ha isopropylamine salt of glyphosate; 187 L/ha; after two weeks
Experimental: as §2, with “of the isopropylamine salt of glyphosate” for “of thifensulfuron methyl”, “of 210” for “of 2”, “g/ha isopropylamine salt of glyphosate” for “g/ha thifensulfuron methyl”, “on giant foxtail (Setaria faberi).” for “on common lambsquarters (Chenopodium album L.).”

[10] = test system: velvetleaf (Abutilon theophrastic); test: Example 23: adjuvants tank mixed with chlorimuron ethyl, percent control from green fresh weights; settings: herbicide alone, no adjuvant; chlorimuron ethyl 1.5 g/ha; 187 L/ha; after two weeks
Experimental: as §2, with “chlorimuron ethyl” for “thifensulfuron methyl”, “1.5” for “2”, “velvetleaf (Abutilon theophrastic).” for “common lambsquarters (Chenopodium album L.).”, “convening” for “converting”

[11] = tribenuron methyl 5.625 g ai/ha
[12] = tribenuron methyl 11.25 g ai/ha
[13] = flupyrsulfuron methyl 2.5 g herbicide /ha
[14] = flupyrsulfuron methyl 5 g herbicide /ha
[15] = flupyrsulfuron methyl 10 g herbicide /ha
[16] = flupyrsulfuron methyl 20 g herbicide /ha
[17] = sulfosulfuron 11.25 g herbicide /ha
[18] = sulfosulfuron 22.5 g herbicide /ha
[19] = sulfosulfuron 33.75 g herbicide /ha
[20] = sulfosulfuron 45 g herbicide /ha

## COC(=O)c1ccccc1S(=O)(=O)NC(=O)N(C)c1nc(C)nc(OC)n1 [Tribenuron methyl, tribenuron methyl]
Viola arvensis (VIOAR); [11]
  % control VIOAR: 27%
Viola arvensis (VIOAR); [12]
  % control VIOAR: 75%
Viola arvensis (VIOAR); tribenuron methyl 22.5 g ai/ha
  % control VIOAR: 80%
Viola arvensis (VIOAR); tribenuron methyl 45 g ai/ha
  % control VIOAR: 99%
[1]; [11]
  % control VERAG: 47%
[1]; [12]
  % control VERAG: 60%
[1]; tribenuron methyl 22.5 g ai/ha
  % control VERAG: 63%
[1]; tribenuron methyl 45 g ai/ha
  % control VERAG: 87%

## COC(=O)c1sccc1S(=O)(=O)NC(=O)Nc1nc(C)nc(OC)n1 [Thifensulfuron Alone, thifensulfuron methyl]
[2]
  % Common Lambsquarters Control: 11%

## COC(=O)c1ccc(C(F)(F)F)nc1S(=O)(=O)NC(=O)Nc1nc(OC)cc(OC)n1 [KE459, flupyrsulfuron methyl]
[3]; [13]
  % control ALOMY: 63%
  Heads/m^2 ALOMY: 224 Heads/m^2
[3]; [14]
  % control ALOMY: 73%
  Heads/m^2 ALOMY: 164 Heads/m^2
[3]; [15]
  % control ALOMY: 77%
  Heads/m^2 ALOMY: 16 Heads/m^2
[3]; [16]
  % control ALOMY: 88%
  Heads/m^2 ALOMY: 8 Heads/m^2

## CCOC(=O)C(C)Oc1ccc(Oc2cnc3cc(Cl)ccc3n2)cc1 (stereo not shown) [Quizalofop Ethyl Alone, quizalofop-ethyl]
[4]
  % Control: 7%

## COc1cc(OC)nc(NC(=O)NS(=O)(=O)c2ncccc2C(=O)N(C)C)n1 [Nicosulfuron Alone, nicosulfuron]
[5]
  % Control: 2%
[6]
  percent control: 0%

## CCS(=O)(=O)c1nc2ccccn2c1S(=O)(=O)NC(=O)Nc1nc(OC)cc(OC)n1 [Sulfosulfuron, sulfosulfuron]
[7]; [17]
  % control ALOMY: 33%
  Heads/m^2 ALOMY: 209 Heads/m^2
[7]; [18]
  % control ALOMY: 47%
  Heads/m^2 ALOMY: 76 Heads/m^2
[7]; [19]
  % control ALOMY: 60%
  Heads/m^2 ALOMY: 25 Heads/m^2
[7]; [20]
  % control ALOMY: 77%
  Heads/m^2 ALOMY: 6 Heads/m^2

## COC(=O)c1ccccc1S(=O)(=O)NC(=O)Nc1nc(C)nc(OC)n1 [T6376, metsulfuron methyl]
[8]; metsulfuron methyl 5.625 g herbicide /ha
  VERHE (percent growth reduction): 33%
[8]; metsulfuron methyl 11.25 g herbicide /ha
  VERHE (percent growth reduction): 33%
[8]; metsulfuron methyl 22.5 g herbicide /ha
  VERHE (percent growth reduction): 52%
[8]; metsulfuron methyl 45 g herbicide /ha
  VERHE (percent growth reduction): 100%

## CC(C)N.O=C(O)CNCP(=O)(O)O [Glyphosate IPA Alone, isopropylamine salt of glyphosate]
[9]
  % Control: 85%

## CCOC(=O)c1ccccc1S(=O)(=O)NC(=O)Nc1nc(Cl)cc(OC)n1 [Chlorimuron Alone, chlorimuron ethyl]
[10]
  % Velvetleaf Control: 53%
